Measurements taken from EP2544684B1, “4,4-DISUBSTITUTED PIPERIDINE DERIVATIVES USEFUL AS INHIBITORS OF DIPEPTIDYL PEPTIDASE-1 (DPP-1)” (Janssen Pharmaceutica NV, priority 2010, dated 2011).
Structures can show the parent of a compound that is named as a salt.

The compounds below were run against T1, DPP-1 (Cathepsin C) (Homo sapiens, UniProt P53634) (assay: DPP-1 Inhibition Assay (in vitro), fluorogenic substrate GR-AMC). Conditions: IC50, recombinant human DPP-1 0.15 nM, 10 uM GR-AMC, pH 7.0, room temperature; average value where tested multiple times.
T1 construct: made in house
Assay type: biochemical
Experimental: Test compounds were assessed for DPP-1 (Cathepsin C) inhibitory activity using a fluorogenic substrate, GR-AMC (Glycine-Arginine-amino-4-methylcoumarin, Bachem, I-1215). The amount of amino-methylcoumarin released is proportional to the DPP-1 activity, and the reaction is monitored kinetically with a Molecular Devices plate reader using black 96-well plates.
All compounds were tested under room temperature conditions. The assay buffer consisted of 50 mM HEPES, pH 7.0, 100 mM NaCl, 2 mM glutathione (GSH), and 0.002% TWEEN 20. GSH and TWEEN 20 were added to the buffer fresh daily. Just prior to use, an in-house preparation of recombinant human DPP-1 (240 µM stock, MW 49.6 kD) was diluted 600-fold in assay buffer containing fresh 2 mM dithiothreitol (DTT) to activate the enzyme, then diluted into assay buffer (without DTT) 133-fold for a DPP-1 working solution of 3 nM. Test compounds were diluted in DMSO for 20x their final assay concentrations.
Additions to a 96-well black Costar 3915 plates were as follows: 90 µL of 11 µM GR-AMC, 5 µL test compound (followed by mixing), and 5 µL 3 nM DPP-1 to start the reaction. Fluorescent reactions were monitored kinetically at 360 nm excitation, 440 nm emission on a Molecular Devices Spectramax XPS reader. The Softmax Pro software of the reader determined the initial velocity of the selected data (the first 3-5 minutes of the reaction), and the best linear regression fit of the initial kinetic data. Final assay conditions were 0.15 nM DPP-1, 10 uM GR-AMC, 50 mM HEPES, pH 7.0, 100 mM NaCl, 2 mM GSH, 0.002% TWEEN 20, 1 uM DTT, 5.0 % DMSO. Initial velocity rates were plotted vs. test compound concentration by use of a four-parameter logistics equation (nonlinear regression, sigmoidal dose-response (variable slope), with fixed Hill (1.0) using GraphPad Prism® software for determination of DPP-1 IC50. Within-run assay coefficient of variation (CV) was generally <10%; between-run CV <20%.
Representative compounds of the present invention were tested according to the procedure as described above, with results as listed in Table 5, below. Table 5: DPP-1 Inhibition

T1 sequence (P53634 25-463): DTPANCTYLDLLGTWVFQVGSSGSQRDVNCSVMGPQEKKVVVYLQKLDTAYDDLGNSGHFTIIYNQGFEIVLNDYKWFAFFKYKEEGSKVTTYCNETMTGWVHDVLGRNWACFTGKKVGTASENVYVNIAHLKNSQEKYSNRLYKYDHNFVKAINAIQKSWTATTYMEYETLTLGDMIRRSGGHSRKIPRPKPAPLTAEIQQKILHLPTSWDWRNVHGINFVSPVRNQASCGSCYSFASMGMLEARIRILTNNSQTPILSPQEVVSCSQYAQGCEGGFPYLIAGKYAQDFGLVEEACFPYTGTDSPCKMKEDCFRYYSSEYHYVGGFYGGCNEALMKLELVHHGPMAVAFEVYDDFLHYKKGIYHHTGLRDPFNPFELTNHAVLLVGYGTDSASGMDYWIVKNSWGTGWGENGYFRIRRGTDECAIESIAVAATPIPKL

SMILES | IC50 [nM]
N#CC1(c2cc(C(F)(F)F)cc(C(F)(F)F)c2)CCN(C(=O)C(N)Cc2cccs2)CC1 (stereo not shown) [Compound 118] | 3400
CC[C@H](N)C(=O)N1CCC(Cc2cccc(-c3ccccc3)c2)(C(=O)OCC2CCCCC2)CC1 [Compound 29] | 9500
N[C@@H](Cc1cccs1)C(=O)N1CCC(Cc2ccc(-c3ccccc3)cc2)(C(=O)N2CCC3CCCCC3C2)CC1 (stereo partly shown) [Compound 7] | 1300
CSC[C@H](N)C(=O)N1CCC(Cc2ccc(-c3ccccc3)cc2)(C(=O)NC2CCCCC2)CC1 [Compound 38] | 750
CC[C@H](N)C(=O)N1CCC(Cc2ccc(C(F)(F)F)cc2)(C(=O)OCC2CCCCC2)CC1 [Compound 18] | 5400
N[C@@H](Cc1c[nH]cn1)C(=O)N1CCC(Cc2cccc(-c3ccccc3)c2)(C(=O)OCC2CCCCC2)CC1 [Compound 31] | 5800

Same assay, conditions: recombinant human DPP-1 0.15 nM, 10 uM GR-AMC, pH 7.0, room temperature; average value where tested multiple times; read-out: IC50

SMILES | IC50 [nM]
N[C@@H](Cc1cccs1)C(=O)N1CCC(Cc2ccc(-c3nnn[nH]3)cc2)(C(=O)NC2CCCCC2)CC1 [Compound 126, (S)-4-(4-(1H-tetrazol-5-yl)benzyl)-1-(2-amino-3-(thiophen-2-yl)propanoyl)-N-cyclohexylpiperidine-4-carboxamide hydrochloride] | 170
NC(C(=O)N1CCC(Cc2ccc(-c3ccccc3)cc2)(C(=O)NCC2CCCCC2)CC1)C(O)c1cccs1 (stereo not shown) [Compound 123] | 820
N[C@@H](Cc1cccs1)C(=O)N1CCC(Cc2ccc(NS(=O)(=O)c3ccccn3)cc2)(C(=O)NC2CCCCC2)CC1 [Compound 87, (S)-1-(2-amino-3-(thiophen-2-yl)propanoyl)-N-cyclohexyl-4-(4-(pyridine-2-sulfonamido)benzyl)piperidine-4-carboxamide hydrochloride] | 20
COC(=O)C1CCC(NC(=O)C2(c3ccccc3)CCN(C(=O)C(N)Cc3cccs3)CC2)CC1 (stereo not shown) [Compound 113] | 70
COC(=O)C1CCC(NC(=O)C2(c3ccccc3)CCN(C(=O)C(N)Cc3cccs3)CC2)CC1 (stereo not shown) [Compound 109] | 25
N#Cc1ccc(CC2(C(=O)OCC3CCCCC3)CCN(C(=O)[C@@H](N)Cc3cccs3)CC2)cc1 [Compound 15, (S)-cyclohexylmethyl 1-(2-amino-3-(thiophen-2-yl)propanoyl)-4-(4-cyanobenzyl)piperidine-4-carboxylate hydrochloride] | 83
N[C@@H](Cc1cccs1)C(=O)N1CCC(Cc2ccccc2C(=O)O)(C(=O)NC2CCCCC2)CC1 [Compound 80, 2-[1-(2-(S)-Amino-3-thiophen-2-yl-propionyl)-4-cyclohexylcarbamoyl-piperidin-4-ylmethyl]-benzoic acid hydrochloride] | 220
NC(Cc1cccs1)C(=O)N1CCC(Cc2ccc(-c3nnn[nH]3)cc2)(C(=O)NC2CCC(O)CC2)CC1 (stereo not shown) [Compound 128] | 690
N[C@@H](Cc1cccs1)C(=O)N1CCC(Cc2ccc(-c3ccccc3)cc2)(C(=O)NCC2CCOCC2)CC1 [Compound 6, (S)-1-(2-amino-3-(thiophen-2-yl)propanoyl)-4-(biphenyl-4-ylmethyl)-N-((tetrahydro-2H-pyran-4-yl)methyl)piperidine-4-carboxamide hydrochloride] | 74
CN(C)C(=O)c1ccc(CC2(C(=O)NC3CCCCC3)CCN(C(=O)[C@@H](N)Cc3cccs3)CC2)cc1 [Compound 59, (S)-1-(2-amino-3-(thiophen-2-yl)propanoyl)-N-cyclohexyl-4-(4-(dimethylcarbamoyl)benzyl)piperidine-4-carboxamide hydrochloride] | 86
N[C@@H](Cc1cccs1)C(=O)N1CCC(C(=O)N[C@H]2CC[C@H](C(=O)O)CC2)(c2ccccc2)CC1 [Compound 111, 4-{[1-(2-(S)-Amino-3-thiophen-2-yl-propionyl)-4-phenyl-piperidine-4-carbonyl]-amino}-trans-cyclohexanecarboxylic acid] | 89
CC[S+]([O-])CCC(N)C(=O)N1CCC(Cc2ccc(-c3ccccc3)cc2)(C(=O)NCC2CCCCC2)CC1 (stereo not shown) [Compound 107] | > 20000
Cc1ccc(C2(C(=O)NC3CCC(O)CC3)CCN(C(=O)C(N)Cc3cccs3)CC2)cc1 (stereo not shown) [Compound 131] | 140
NC(=O)c1ccc(CC2(C(=O)NCC3CCCCC3)CCN(C(=O)[C@@H](N)Cc3cccs3)CC2)cc1 [Compound 116, (S)-1-(2-amino-3-(thiophen-2-yl)propanoyl)-4-(4-carbamoylbenzyl)-N-(cyclohexylmethyl)piperidine-4-carboxamide hydrochloride] | 50
CC(=O)Nc1ccc(CC2(C(=O)NC3CCCCC3)CCN(C(=O)[C@@H](N)Cc3cccs3)CC2)cc1 [Compound 90, (S)-4-(4-acetamidobenzyl)-1-(2-amino-3-(thiophen-2-yl)propanoyl)-N-cyclohexylpiperidine-4-carboxamide hydrochloride] | 49
COc1cccc(-c2ccc(CC3(C(=O)NC4CCCCC4)CCN(C(=O)[C@@H](N)Cc4cccs4)CC3)cc2)c1 [Compound 47, (S)-1-(2-amino-3-(thiophen-2-yl)propanoyl)-N-cyclohexyl-4-((3'-methoxybiphenyl-4-yl)methyl)piperidine-4-carboxamide hydrochloride] | 34
N[C@@H](Cc1cccs1)C(=O)N1CCC(C(=O)NCC2CCCCC2)(c2cc(C(F)(F)F)cc(C(F)(F)F)c2)CC1 [Compound 133, 1-(2-(S)-Amino-3-thiophen-2-yl-propionyl)-4-(3,5-bis-trifluoromethyl-phenyl)-piperidine-4-carboxylic acid cyclohexylmethylamide hydrochloride] | 67
C#CC[C@H](N)C(=O)N1CCC(Cc2ccc(-c3ccccc3)cc2)(C(=O)NC2CCCCC2)CC1 [Compound 35] | > 20000
N#Cc1ccc(CC2(C(=O)NC3CCC(O)CC3)CCN(C(=O)C(N)Cc3cccs3)CC2)cc1 (stereo not shown) [Compound 125] | 160
CS(=O)(=O)CC[C@H](N)C(=O)N1CCC(Cc2ccc(I)cc2)(C(=O)NC2CCCCC2)CC1 [Compound 74] | > 20000
CN1CCC(CNC(=O)C2(c3ccccc3)CCN(C(=O)C(N)Cc3cccs3)CC2)CC1 (stereo not shown) [Compound 152] | 820
NC(=O)c1ccc(CC2(C(=O)NC3CCC(O)CC3)CCN(C(=O)C(N)Cc3cccs3)CC2)cc1 (stereo not shown) [Compound 117] | 330
